Measured values as given in patent US6962909B2, “Treatment of neovascularization disorders with squalimine” (Genaera Corporation, priority 1995, dated 2005).
In brackets after ≈: the same amount, converted by molar mass.

Key:
[1] = test system: Stage 59-60 Xenopus tadpoles; assay: Xenopus tadpole assay; format: in vivo, Xenopus laevis; settings: 10 μg/ml in water
Description: A newly developed assay employing tadpoles, preferably Xenopus laevis Stages 59-60, were employed to study the effect of a compound by monitoring capillary occlusion in the tadpole's tail. […] The compounds of the invention affect the shape, viability and integrity of the embryonic tissues while not affecting the adult tissues, providing a powerful, highly specific screen. For example, substances that destroy all of the animal's epithelium, both adult and embryonic, could be regarded as toxic.
In this assay, tadpoles are introduced into Petri dishes containing a solution of the test compound in distilled water, preferably about 100 ml. The preferred concentration of the test compound is from about 1 μg/ml to about 10 μg/ml. The volume of liquid is sufficient for the animal to swim freely and drink from the solution. Thus, the effect observed results from oral absorption and subsequent systemic distribution of the agent. If the volume of liquid is not sufficient to permit oral intake, the effects that are observed would result from absorption through the surface epithelium. Thus, this simple assay can identify if an compound has characteristics of oral availability.
After an amount of time, typically about 60 minutes, the occlusion of blood flow through capillaries in the tadpole's tail are observed under an inverted microscope at a magnification of roughly 100×.
The tadpole assay described above provides an advantageous way to determine the pharmacological targets of each steroid when introduced into a mammal, and to determine pharmacological categories into which synthetic compounds belong. In the assay, each of the steroids was dissolved in 100 ml of distilled water at a concentration of 10 μg/ml. Stage 59-60 Xenopus tadpoles were introduced and evaluated by light microscopy and gross observation 1 hour later.

[2] = test system: vitelline capillaries of 3- to 5-day chick embryo; assay: Chick embryo vitelline capillary regression assay; format: in vivo; set-up: key to Vascular reactivity (capillary regression): + = Vascular reactivity; 0 = No vascular reactivity; +/− = Equivocal reactivity; settings: 60 minutes
Procedure: Using the chick embryo vitelline capillaries assay, compounds were tested for their ability to induce capillary regression. Each compound was applied in 0.1 ml of 15% Ficol 400 and PBS onto the embryo, and vascular regression was assessed after 60 minutes.
The 3-day chick embryo consists of an embryonic disc from which numerous vessels emerge and return, forming a “figure 8”-shaped structure—the embryo in the center with vascular loops extending outward over both poles. […] Following a lag period of around 15 minutes, the constriction of continuity between capillary and secondary vessels, generally on the “venous” side, was observed. Continued pulsatile blood flow progressed, resulting in a “swelling” of the blind tube, followed by a pinching off of the remaining connection and formation of an enclosed vascular sac resembling a “blood island.” This process progressed until only the largest vessels remained intact.

[3] = test system: human microvascular cells; assay: Endothelial cord formation assay; format: cell-based; as to Effect on endothelial cord formation: key: + = Inhibition of angiogenesis; − = No inhibition of angiogenesis; T = Toxic; *= cell rounding @ 10 µg/ml
Description: Endothelial cells have the capacity in vitro to form tubular aggregates resembling capillaries in various early stages of formation. This conversion occurs under relatively specific conditions, in which essential growth factors along with an effective substratum are provided. It has been shown that both the interaction of growth factors with the endothelial cell and its attachment to a substratum activate the NHE. The activation of this exchanger is believed to be required for subsequent morphologic transformation of the endothelial cell into a multicellular tubular structure.
To assess the effect of compounds on the cord-like structures formed by human microvascular cells when plated in the presence of VGEF (Vascular Endothelial Growth Factor) and basic fibroblast growth factor on a collagen matrix, a standard cord formation assay was used.

S. aureus = assay: Antibiotic activity, MIC; format: cell-based; settings: Staphylococcus aureus
E. coli = assay: Antibiotic activity, MIC; format: cell-based; settings: Escherichia coli

COC(=O)CCC(C)[C@H]1CCC2C3C[C@@H](O)[C@H]4C[C@@H](NCCCNCCCCNCCCN)CC[C@]4(C)C3CC[C@@]21C (stereo partly shown) [Compound 466]
Pharmacological category in tadpole assay (similarity to a reference steroid) [1]: pharmacologic activity similar to that seen for FX 3

CC(CCC(=O)O)[C@H]1CCC2C3CC[C@H]4C[C@H](NCCCNCCCCN)CC[C@]4(C)C3CC[C@@]21C (stereo partly shown) [Compound 318]
Vascular reactivity (capillary regression) ([2]; 1 μg applied): 0

COC(=O)CCC(C)[C@H]1CCC2C3C[C@@H](O)[C@H]4C[C@H](NCCCNCCCCNCCCN)CC[C@]4(C)C3CC[C@@]21C (stereo partly shown) [Compound 465]
Pharmacological category in tadpole assay (similarity to a reference steroid) [1]: pharmacologic activity similar to that seen for FX 3

CC(CCC(=O)O)[C@H]1CCC2C3C(CC[C@@]21C)[C@@]1(C)CC[C@H](NCCCNCCCCNCCCN)C[C@H]1C[C@H]3O (stereo partly shown) [drawing 154]
Cord Formation, Minimum Effective Concentration [3]: >10 µg/mL

CO[C@@H]1[C@H](OC(=O)/C=C/C=C/C=C/C=C/C(=O)O)CC[C@]2(CO2)[C@H]1[C@@]1(C)O[C@@H]1CC=C(C)C [Fumagillin, reference compound]
Concentration that inhibits cord formation [3]: 10 µg/mL | Effect on endothelial cord formation ([3]; 0.1 μg/ml): − | Effect on endothelial cord formation ([3]; 10.0 μg/ml): +

CC(C)CCCC(C)[C@H]1CCC2C3C(CC[C@@]21C)[C@@]1(C)CC[C@H](N)C[C@@H]1C[C@H]3O (stereo partly shown) [Compound 1364]
Vascular reactivity (capillary regression) ([2]; 0.001 μg applied): 0 | Vascular reactivity (capillary regression) ([2]; 0.01 μg applied): 0 | Vascular reactivity (capillary regression) ([2]; 0.1 μg applied): 0 | Vascular reactivity (capillary regression) ([2]; 1 μg applied): + | Vascular reactivity (capillary regression) ([2]; 10 μg applied): +

CC(CCC(=O)O)[C@H]1CCC2C3C(CC[C@@]21C)[C@@]1(C)CC[C@H](NCCN)C[C@H]1C[C@H]3O (stereo partly shown) [Compound 415]
Effect on endothelial cord formation ([3]; 0.1 μg/ml): − | Effect on endothelial cord formation ([3]; 1.0 μg/ml): − | Effect on endothelial cord formation ([3]; 10.0 μg/ml): +/T | Vascular reactivity (capillary regression) ([2]; 0.001 μg applied): 0 | Vascular reactivity (capillary regression) ([2]; 0.01 μg applied): + | Vascular reactivity (capillary regression) ([2]; 0.1 μg applied): + | Vascular reactivity (capillary regression) ([2]; 1 μg applied): +

COC(=O)CCC(C)[C@H]1CCC2C3C(CC[C@@]21C)[C@@]1(C)CC[C@@H](NCCN)C[C@H]1C[C@H]3O (stereo partly shown) [drawing 70]
MIC (S. aureus): 16 µg/mL (≈ 35.7 µM) | MIC (E. coli): 16 µg/mL (≈ 35.7 µM)

COC(=O)CCC(C)[C@H]1CCC2C3C(CC[C@@]21C)[C@@]1(C)CC[C@H](NCCCNCCCCNCCCN)C[C@@H]1C[C@H]3O (stereo partly shown) [Compound 396]
Vascular reactivity (capillary regression) ([2]; 0.001 μg applied): 0 | Vascular reactivity (capillary regression) ([2]; 0.01 μg applied): 0 | Vascular reactivity (capillary regression) ([2]; 0.1 μg applied): 0 | Vascular reactivity (capillary regression) ([2]; 1 μg applied): +

CC(CCC(=O)O)[C@H]1CCC2C3C(CC[C@@]21C)[C@@]1(C)CC[C@@H](NCCCNCCCCNCCCN)C[C@H]1C[C@H]3O (stereo partly shown) [drawing 72]
MIC (S. aureus): 8 µg/mL (≈ 13.9 µM)

CC(C)CCCC(C)[C@H]1CCC2C3C(CC[C@@]21C)[C@@]1(C)CC[C@@H](NCCCNCCCCN)C[C@@H]1C[C@H]3O (stereo partly shown) [Compound 370]
Pharmacological category in tadpole assay (similarity to a reference steroid) [1]: pharmacologic activity similar to that seen for FX 3

CC(CCC(=O)O)[C@H]1CCC2C3C(CC[C@@]21C)[C@@]1(C)CC[C@@H](NCCCNCCCCN)C[C@@H]1C[C@H]3O (stereo partly shown) [Compound 382]
Vascular reactivity (capillary regression) ([2]; 0.001 μg applied): 0 | Vascular reactivity (capillary regression) ([2]; 0.01 μg applied): 0 | Vascular reactivity (capillary regression) ([2]; 0.1 μg applied): 0 | Vascular reactivity (capillary regression) ([2]; 1 μg applied): + | Vascular reactivity (capillary regression) ([2]; 10 μg applied): +

CC(C)CCCC(C)[C@H]1CCC2C3C(CC[C@@]21C)[C@@]1(C)CC[C@@H](N)C[C@@H]1C[C@H]3O (stereo partly shown) [Compound 1363]
Pharmacological category in tadpole assay (similarity to a reference steroid) [1]: pharmacologic activity similar to Fraction 1

CC(CCC(=O)C(C)(C)OS(=O)(=O)O)[C@H]1CCC2C3C(CC[C@@]21C)[C@@]1(C)CC[C@H](NCCCNCCCCN)C[C@@H]1C[C@H]3O (stereo partly shown) [FX1A]
Pharmacological response observed in tadpole ([1]; about 1 hour): fecal elimination is dramatically increased

CC(CCC(=O)O)[C@H]1CCC2C3C[C@@H](O)[C@H]4C[C@@H](NCCN)CC[C@]4(C)C3CC[C@@]21C (stereo partly shown) [Compound 433]
Pharmacological category in tadpole assay (similarity to a reference steroid) [1]: functionally similar to compound 1437

CC(CCC(=O)O)[C@H]1CCC2C3C(CC[C@@]21C)[C@@]1(C)CC[C@@H](NCCCNCCCCNCCCN)C[C@H]1C[C@H]3O (stereo partly shown) [drawing 152]
Cord Formation, Minimum Effective Concentration [3]: >10 µg/mL

CC(CCC(=O)O)[C@H]1CCC2C3C(CC[C@@]21C)[C@@]1(C)CC[C@H](NCCN)C[C@H]1C[C@H]3O (stereo partly shown)
Cord Formation, Minimum Effective Concentration [3]: >10 µg/mL
